Measurements reported in PubChem BioAssay (NCI).
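Test compounds were applied to cells in 96-well plates for 48 hours at 5 doses. At the GI50, growth is halved. TGI denotes the concentration required for complete inhibition of growth.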

Columns and labels:
Test in all cases: NCI-60 cell line screen, 48 h
UO-31 renal = system: UO-31 renal
MOLT-4 leukemia = system: MOLT-4 leukemia
COLO 205 colon = system: COLO 205 colon
SK-OV-3 ovarian = system: SK-OV-3 ovarian
HCT-116 colon = system: HCT-116 colon
ACHN renal = system: ACHN renal
KM12 colon = system: KM12 colon
OVCAR-5 ovarian = system: OVCAR-5 ovarian
OVCAR-3 ovarian = system: OVCAR-3 ovarian
LOX IMVI melanoma = system: LOX IMVI melanoma
NCI-H23 lung = system: NCI-H23 lung
HCT-15 colon = system: HCT-15 colon
HL-60(TB) leukemia = system: HL-60(TB) leukemia
SNB-75 CNS = system: SNB-75 CNS
SF-539 CNS = system: SF-539 CNS
NCI-H226 lung = system: NCI-H226 lung
HCC-2998 colon = system: HCC-2998 colon
HOP-92 NSCLC = system: HOP-92 NSCLC
NCI-H522 lung = system: NCI-H522 lung
MDA-MB-435 = system: MDA-MB-435
A498 renal = system: A498 renal
SK-MEL-2 melanoma = system: SK-MEL-2 melanoma
SNB-19 CNS = system: SNB-19 CNS
NCI/ADR-RES ovarian = system: NCI/ADR-RES ovarian
SF-268 CNS = system: SF-268 CNS
HT29 colon = system: HT29 colon
NCI-H460 lung = system: NCI-H460 lung
IGROV1 ovarian = system: IGROV1 ovarian
SF-295 CNS = system: SF-295 CNS
RXF 393 renal = system: RXF 393 renal
K-562 leukemia = system: K-562 leukemia
A549 NSCLC = system: A549 NSCLC
EKVX NSCLC = system: EKVX NSCLC
TK-10 renal = system: TK-10 renal
RPMI-8226 leukemia = system: RPMI-8226 leukemia
SK-MEL-28 melanoma = system: SK-MEL-28 melanoma
HS 578T breast = system: HS 578T breast
U251 CNS = system: U251 CNS
M14 melanoma = system: M14 melanoma
CAKI-1 renal = system: CAKI-1 renal
MCF7 breast = system: MCF7 breast
SK-MEL-5 melanoma = system: SK-MEL-5 melanoma
MDA-MB-231 breast = system: MDA-MB-231 breast
OVCAR-4 ovarian = system: OVCAR-4 ovarian
UACC-62 melanoma = system: UACC-62 melanoma
T-47D breast = system: T-47D breast
SN12C renal = system: SN12C renal
DU-145 prostate = system: DU-145 prostate
PC-3 prostate = system: PC-3 prostate
UACC-257 melanoma = system: UACC-257 melanoma
SW-620 colon = system: SW-620 colon
HOP-62 NSCLC = system: HOP-62 NSCLC
786-0 renal = system: 786-0 renal
BT-549 breast = system: BT-549 breast
OVCAR-8 ovarian = system: OVCAR-8 ovarian
SR leukemia = system: SR leukemia

Structure (SMILES): CCOC(=O)C(=Cc1ccc(-c2ccccc2)cc1)C(=O)OCC
- GI50 (UO-31 renal): 1.71 µM
- TGI (UO-31 renal): 3.29 µM
- GI50 (MOLT-4 leukemia): 2.46 µM
- TGI (MOLT-4 leukemia): 6.59 µM
- GI50 (COLO 205 colon): 3.45 µM
- TGI (COLO 205 colon): 11.1 µM
- GI50 (SK-OV-3 ovarian): 11.7 µM
- TGI (SK-OV-3 ovarian): 24.8 µM
- GI50 (HCT-116 colon): 2.13 µM
- TGI (HCT-116 colon): 4.91 µM
- GI50 (ACHN renal): 1.83 µM
- TGI (ACHN renal): 3.42 µM
- GI50 (KM12 colon): 3.37 µM
- TGI (KM12 colon): 12.1 µM
- GI50 (OVCAR-5 ovarian): 2.67 µM
- TGI (OVCAR-5 ovarian): 6.48 µM
- GI50 (OVCAR-3 ovarian): 2.86 µM
- TGI (OVCAR-3 ovarian): 8.18 µM
- GI50 (LOX IMVI melanoma): 1.72 µM
- TGI (LOX IMVI melanoma): 3.21 µM
- GI50 (NCI-H23 lung): 2.22 µM
- TGI (NCI-H23 lung): 6.34 µM
- GI50 (HCT-15 colon): 1.93 µM
- TGI (HCT-15 colon): 4.84 µM
- GI50 (HL-60(TB) leukemia): 2.1 µM
- TGI (HL-60(TB) leukemia): 4.7 µM
- GI50 (SNB-75 CNS): 3.89 µM
- TGI (SNB-75 CNS): 16.3 µM
- GI50 (SF-539 CNS): 1.8 µM
- TGI (SF-539 CNS): 3.35 µM
- GI50 (NCI-H226 lung): 2.4 µM
- TGI (NCI-H226 lung): 5.21 µM
- GI50 (HCC-2998 colon): 1.89 µM
- TGI (HCC-2998 colon): 3.54 µM
- GI50 (HOP-92 NSCLC): 2.42 µM
- TGI (HOP-92 NSCLC): 6.72 µM
- GI50 (NCI-H522 lung): 1.68 µM
- TGI (NCI-H522 lung): 3.38 µM
- GI50 (MDA-MB-435): 2.55 µM
- TGI (MDA-MB-435): 7.57 µM
- GI50 (A498 renal): 3.74 µM
- TGI (A498 renal): 12.8 µM
- GI50 (SK-MEL-2 melanoma): 3.81 µM
- TGI (SK-MEL-2 melanoma): 11.4 µM
- GI50 (SNB-19 CNS): 2.21 µM
- TGI (SNB-19 CNS): 5.14 µM
- GI50 (NCI/ADR-RES ovarian): 3 µM
- TGI (NCI/ADR-RES ovarian): 8.77 µM
- GI50 (SF-268 CNS): 3.06 µM
- TGI (SF-268 CNS): 11 µM
- GI50 (HT29 colon): 2.04 µM
- TGI (HT29 colon): 3.88 µM
- GI50 (NCI-H460 lung): 5.04 µM
- TGI (NCI-H460 lung): 17.2 µM
- GI50 (IGROV1 ovarian): 2.29 µM
- TGI (IGROV1 ovarian): 5.61 µM
- GI50 (SF-295 CNS): 5.22 µM
- TGI (SF-295 CNS): 18.4 µM
- GI50 (RXF 393 renal): 1.95 µM
- TGI (RXF 393 renal): 3.74 µM
- GI50 (K-562 leukemia): 3.17 µM
- TGI (K-562 leukemia): > 100 µM
- GI50 (A549 NSCLC): 3.61 µM
- TGI (A549 NSCLC): > 100 µM
- GI50 (EKVX NSCLC): 10.3 µM
- TGI (EKVX NSCLC): 22.1 µM
- GI50 (TK-10 renal): 3.91 µM
- TGI (TK-10 renal): 13.3 µM
- GI50 (RPMI-8226 leukemia): 2.43 µM
- TGI (RPMI-8226 leukemia): 7.04 µM
- GI50 (SK-MEL-28 melanoma): 1.95 µM
- TGI (SK-MEL-28 melanoma): 4.23 µM
- GI50 (HS 578T breast): 4.36 µM
- TGI (HS 578T breast): 25.7 µM
- GI50 (U251 CNS): 1.68 µM
- TGI (U251 CNS): 5.67 µM
- GI50 (M14 melanoma): 3.14 µM
- TGI (M14 melanoma): 11.1 µM
- GI50 (CAKI-1 renal): 3.24 µM
- TGI (CAKI-1 renal): 10.8 µM
- GI50 (MCF7 breast): 2.69 µM
- TGI (MCF7 breast): 13.2 µM
- GI50 (SK-MEL-5 melanoma): 2.39 µM
- TGI (SK-MEL-5 melanoma): 5.75 µM
- GI50 (MDA-MB-231 breast): 2.98 µM
- TGI (MDA-MB-231 breast): 7.2 µM
- GI50 (OVCAR-4 ovarian): 6.3 µM
- TGI (OVCAR-4 ovarian): 19.9 µM
- GI50 (UACC-62 melanoma): 1.76 µM
- TGI (UACC-62 melanoma): 3.69 µM
- GI50 (T-47D breast): 2.02 µM
- TGI (T-47D breast): 4.74 µM
- GI50 (SN12C renal): 2.02 µM
- TGI (SN12C renal): 4.23 µM
- GI50 (DU-145 prostate): 3.12 µM
- TGI (DU-145 prostate): 11.1 µM
- GI50 (PC-3 prostate): 2.51 µM
- TGI (PC-3 prostate): 6.09 µM
- GI50 (UACC-257 melanoma): 3.53 µM
- TGI (UACC-257 melanoma): 9.29 µM
- GI50 (SW-620 colon): 2.07 µM
- TGI (SW-620 colon): 4.28 µM
- GI50 (HOP-62 NSCLC): 3.55 µM
- TGI (HOP-62 NSCLC): 11.3 µM
- GI50 (786-0 renal): 2.06 µM
- TGI (786-0 renal): 4.16 µM
- GI50 (BT-549 breast): 2.64 µM
- TGI (BT-549 breast): 7.03 µM
- GI50 (OVCAR-8 ovarian): 2.85 µM
- TGI (OVCAR-8 ovarian): > 100 µM
- GI50 (SR leukemia): 3.13 µM
- TGI (SR leukemia): 38.3 µM
